Experimental findings from patent publication US20140335050A1, “METHODS, COMPOSITIONS, AND KITS FOR THE TREATMENT OF CANCER” (The General Hospital Corporation, priority 2011, published 2014) are described below.

For assay [1], the system named is 453A melanoma cell line. Briefly: Intracellular antibody staining and flow cytometry (Melan-A/MART-1, gp100/HMB45). In kind it is cell-based, human. The note with it: 453A (BRAF M/WT, NRAS WT); 3 days; 17-AEP 1.00, CCT018159 10.00, PU-H71 0.30 μg/ml. Here is the method: (§1) Cells were fixed with 1% formaldehyde, permeabilized with 0.1% saponin, stained with monoclonal antibodies to melanocyte antigens. Antibodies were obtained with specificity for: MART-1 from Vector Labs (Burlingame, Calif.); gp100 HMB45 from DakoCytomation (Carpinteria, Calif.) and then visualized with goat anti-mouse FITC-conjugated secondary antibody from Invitrogen (Fredrick, Md.). The level of EGFP was determined by flow cytometry of unfixed cells that were washed and resuspended in 1×PBS.
Cells were plated at a density of 1×10^5 in 1 ml of medium in a 24-well plate and cultured for varying times as indicated in results. […] After incubation, cells were collected by trypsinization and then evaluated by flow cytometry.
as §1, with “Intracellular staining and flow cytometric analyses of cytoplasmic Melan-A/MART-1, and gp100 expression were performed as described previously. Cells” for “Cells”, “Melan-A/MART-1” for “MART-1”, “gp100/HMB45” for “gp100 HMB45”, “(Frederick,” for “(Fredrick,”, “cells” for “cells that were”, “1×PBS. […]” for “1×PBS.”

For assay [2], the system named is tumor cell lines. Briefly: MHC Class I and Class II surface staining, statements over a panel of tumor cell lines. In kind it is cell-based, human. The following applies: HeLa, MCF-7, U2-OS, MU-89, U118, Jurkat, Raji (Table 19). Here is the method:
For surface staining of HLA Class I and II antigens, cells were harvested using CellStripper™ from Mediatech (Manassas, Va.). All staining steps were performed on ice. Following a first incubation with antibody to Class I (W6/32) or Class II (L243) for 30 minutes. Stained cells were washed twice with cold PBS and then stained with a goat anti-mouse FITC secondary antibody to allow for quantitative analysis by flow cytometry. For evaluation of cytoplasmic antigens, including Melan-A/MART-1 and gp100, cells were first fixed in paraformaldehyde and permeabilized with saponin as previously described. Staining for cytoplasmic antigens was carried out at room temperature (22° C.).

With `CCc1cc(-c2n[nH]c(C)c2-c2ccc3c(c2)OCCO3)c(O)cc1O` [CCT018159], in assay [1], the “HMB45, level of induction relative to untreated control cells” value was determined as 3.38 and the “MART-1, level of induction relative to untreated control cells” value was found to be 3.29. Take `CC(C)NCCCn1c(Sc2cc3c(cc2I)OCO3)nc2c(N)ncnc21` [PU-H71]: the “Class II MHC expression over the tumor panel” value in assay [2] is on record as “no induction”.
